Assay results as given in the supplement of paper PMC10307832.

Key:
Assay in all cases: relative viability (nuclei count vs DMSO), 5 days (fraction); higher = more cells survive
[1] = compound: N#CC[C@H](C1CCCC1)n1cc(-c2ncnc3[nH]ccc23)cn1 [Ruxolitinib] + Cc1nc(Nc2ncc(C(=O)Nc3c(C)cccc3Cl)s2)cc(N2CCN(CCO)CC2)n1 [Dasatinib] (partner 0.075 µM)
Outline: (§1)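 Five library-drug doses in √10 steps were combined with a fixed anchor-drug dose, or a single drug was given alone, by pin tool to lung cancer cell lines in 1536-well plates the day after seeding. Nuclei were stained and counted after 5 days. Relative viability is the nuclei count in treated wells over that in vehicle wells, taken as the median of duplicate plates.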

[2] = compound: N#CC[C@H](C1CCCC1)n1cc(-c2ncnc3[nH]ccc23)cn1 [Ruxolitinib] + Cc1cc(Nc2cc(N3CCN(C)CC3)nc(Sc3ccc(NC(=O)C4CC4)cc3)n2)n[nH]1 [Tozasertib] (partner 0.1 µM)
Outline: as §1

[3] = compound: CS(=O)(=O)c1ccc(C(=O)Nc2ccc(Cl)c(-c3ccccn3)c2)c(Cl)c1 [Vismodegib] + Cc1nc(NC(=O)N2CCC[C@H]2C(N)=O)sc1-c1ccnc(C(C)(C)C(F)(F)F)c1 [Alpelisib] (partner 2 µM)
Outline: as §1

[4] = compound: CS(=O)(=O)c1ccc(C(=O)Nc2ccc(Cl)c(-c3ccccn3)c2)c(Cl)c1 [Vismodegib] + O=C(CCCCCCC(=O)Nc1ccccc1)NO [Vorinostat] (partner 1 µM)
Outline: as §1

Row | Cell Line | relative viability ([1]; first compound 0.253 µM) | relative viability ([1]; first compound 0.8 µM) | relative viability ([1]; first compound 2.53 µM) | relative viability ([1]; first compound 8 µM) | relative viability ([2]; first compound 0.253 µM) | relative viability ([2]; first compound 0.8 µM) | relative viability ([2]; first compound 2.53 µM) | relative viability ([2]; first compound 8 µM) | relative viability ([3]; first compound 0.08 µM) | relative viability ([3]; first compound 0.253 µM) | relative viability ([3]; first compound 0.8 µM) | relative viability ([3]; first compound 2.53 µM) | relative viability ([3]; first compound 8 µM) | relative viability ([4]; first compound 0.08 µM) | relative viability ([4]; first compound 0.253 µM) | relative viability ([4]; first compound 0.8 µM) | relative viability ([4]; first compound 2.53 µM) | relative viability ([4]; first compound 8 µM) | relative viability ([1]; first compound 0.08 µM) | relative viability ([2]; first compound 0.08 µM)
1 | PC-14 | 0.334 | 0.349 | 0.155 | 0.0674 | 0.677 | 0.58 | 0.471 | 0.483 | 0.884 | 0.888 | 1.03 | 0.907 | 0.926 | 0.682 | 0.773 | 0.764 | 0.838 | 0.749 |  | 
2 | A549 |  |  |  |  |  |  |  |  | 0.658 | 0.673 | 0.73 | 0.734 | 0.69 |  |  |  |  |  |  | 
3 | NCI-H2342 | 0.299 | 0.341 | 0.31 | 0.319 | 0.556 | 0.486 | 0.479 | 0.532 |  |  |  |  |  | 0.747 | 0.597 | 0.805 | 0.735 | 0.652 | 0.315 | 0.529
4 | NCI-H1623 | 0.512 | 0.488 | 0.699 | 0.474 | 0.485 | 0.49 | 0.49 | 0.479 |  |  |  |  |  |  |  |  |  |  | 0.591 | 0.488
5 | NCI-H520 |  | 0.183 | 0.159 | 0.163 | 0.467 | 0.537 | 0.439 | 0.477 | 0.917 | 0.938 | 0.988 | 0.896 | 0.987 | 0.71 | 0.697 | 0.747 | 0.553 | 0.701 | 0.239 | 0.553
6 | NCI-H2405 | 0.192 | 0.214 | 0.189 | 0.218 | 0.787 | 0.833 | 0.758 | 0.604 |  | 0.81 | 0.676 | 0.603 | 0.875 | 0.958 | 0.85 | 1 | 1.02 | 1.06 |  | 
7 | PC-3 [JPC-3] | 1.06 | 0.989 | 0.872 | 0.883 | 0.894 | 0.862 | 0.824 | 0.859 | 0.971 | 1.04 | 1.04 | 0.941 | 0.972 | 0.858 | 0.548 | 0.802 | 0.924 | 0.896 | 0.684 | 0.77
8 | EBC-1 |  |  |  |  |  |  |  |  | 0.838 | 0.891 | 0.876 | 0.789 | 0.891 |  |  |  |  |  |  | 
9 | NCI-H2347 | 0.341 | 0.297 | 0.29 | 0.333 | 0.561 | 0.554 | 0.725 | 0.701 | 0.966 | 0.994 | 0.91 | 1.02 | 1.1 | 0.553 | 0.616 | 0.519 | 0.711 | 0.507 | 0.295 | 0.612
10 | LXF-289 | 0.191 | 0.216 | 0.135 | 0.0782 | 0.165 | 0.233 | 0.134 | 0.187 | 1 | 0.993 | 1.07 | 0.994 | 1.04 | 0.787 | 0.724 | 0.846 | 0.731 | 0.629 | 0.192 | 0.215
11 | HCC-78 | 0.319 | 0.387 | 0.354 | 0.323 | 0.45 | 0.414 | 0.55 | 0.5 | 0.369 | 0.346 | 0.267 | 0.359 | 0.362 | 0.425 | 0.403 | 0.453 | 0.492 | 0.42 | 0.39 | 0.512
12 | HCC-366 | 0.547 | 0.595 | 0.431 | 0.52 | 0.113 | 0.192 | 0.0897 | 0.101 | 0.436 | 0.467 | 0.362 | 0.402 | 0.556 | 0.46 | 0.37 | 0.25 | 0.354 | 0.285 | 0.646 | 0.117
13 | NCI-H522 | 1.03 | 0.916 | 0.919 | 0.731 | 0.567 | 0.602 | 0.533 | 0.524 |  |  |  |  |  | 1.02 | 0.886 | 0.808 | 0.941 | 0.806 | 0.751 | 0.576
14 | NCI-H1792 | 0.664 | 0.675 | 0.541 | 0.466 |  |  |  |  | 0.608 | 0.687 | 0.615 | 0.667 | 0.647 |  |  |  |  |  | 0.664 | 
15 | Calu-6 |  |  |  |  |  |  |  |  | 0.97 | 0.976 | 0.901 | 1.09 | 0.979 |  |  |  |  |  |  | 
16 | IA-LM |  |  |  |  |  |  |  |  | 0.778 | 0.728 | 0.966 | 0.582 | 1.04 | 0.735 | 0.951 | 0.843 | 0.947 | 1.03 |  | 
17 | NCI-H1648 |  |  |  |  | 0.414 | 0.747 | 0.878 | 1.14 |  |  |  |  |  | 0.607 | 0.757 | 0.389 | 0.465 | 0.512 |  | 
18 | NCI-H1703 |  |  |  |  |  |  |  |  | 0.315 | 0.311 | 0.407 | 0.306 | 0.422 |  |  |  |  |  |  | 
19 | NCI-H1299 |  |  |  |  |  |  |  |  | 0.984 | 1.04 | 1.06 | 0.973 | 1.04 |  |  |  |  |  |  | 
